Values quoted from earlier work in publication PMC5107951 (Scientific Reports, 2016).

System: GABA-A receptor
Details: cited from earlier work

Substance	binding to GABA-A receptor (in words)
α-cobratoxin	also binds
α-conotoxin ImI	low affinity
